According to patent US12447153B2, “HER2 mutation inhibitors” (Array BioPharma Inc., priority 2021, dated 2025):

Experiments:
EGFR = EGFR (Homo sapiens (Human), UniProt P00533); assay: ErbB Enzyme Assay (HTRF KinEASE-TK), Assay 3; assay type: biochemical
Description: The kinases were incubated with 250 nM TK-substrate biotin (CisBio, part of cat #62TKOPEC) at 1 mM ATP along with test compounds in a buffer consisting of 25 mM HEPES, pH 7.4, 10 mM MgCl2, 0.01% Triton X-100, and 2% DMSO in a volume of 8 μL. […] After 30-minute incubation at 22° C., the reaction was quenched by adding 8 μL of quench solution containing 62.5 nM Sa-XL665 and 0.25×TK-Ab-Cryptate in HTRF detection buffer (all from CisBio, part of cat #62TKOPEC). […] A 4-parameter logistic curve was fit to the POC values as a function of the concentration of compound, and the IC50 value was the point where the best-fit curve crossed 50 POC.

EGFR wild type (EGFR WT) = EGFR wild type (EGFR WT) (Homo sapiens (Human), UniProt P00533); assay: Cellular Phosphorylation Assay, Assay 5 (EGF-stimulated EGFR phosphorylation, NIH 3T3 cells); assay type: cell-based
Description: (§1) NIH 3T3 cells were engineered to express ErbB2 with Exon 20 YVMA insertion (HER2-YVMA (SEQ ID NO: 2); Assay 4) or EGFR wild type (EGFR WT; Assay 5) with constructs obtained from GenScript and grown in DMEM supplemented with 10% fetal bovine serum and 15 μg/ml blasticidin. […] Serially diluted compounds were added to the plates for 1 hour at 37° C./5% CO2. EGFR WT cells were stimulated with 100 ng/ml rEGF for an additional 10 minutes at 37° C./5% CO2.
(§2) After compound incubation, medium was removed from the cells, which were then fixed in 3.7% formaldehyde in PBS at room temperature for 20 minutes. Following a wash with PBS, cells were permeabilized with 100% methanol at room temperature for 10 minutes. Cells were then washed with PBS/0.05% Tween-20 and blocked with Odyssey blocking buffer (LI-COR Biosciences) for at least 1 hour at room temperature. Antibodies to phosphorylated ErbB2 (Y1196, Cell Signaling #6942) or phosphorylated EGFR (Y1068, Cell Signaling #3777) and GAPDH (Millipore #MAB374) were added to the cells in blocking buffer containing 0.05% azide and incubated overnight at 4° C. After washing with PBS/0.05% Tween-20, the cells were incubated with fluorescently labeled secondary anti-rabbit antibody (LiCOR, IRDye 800CW #926-32211) and anti-mouse antibody (Molecular Probes, Alexa Fluor 680 #A21058) for 1 hour at room temperature in the dark. Cells were then washed and analyzed for fluorescence at both wavelengths using the Odyssey Infrared Imaging System (LI-COR Biosciences). Phosphorylated ErbB2 and EGFR signal was normalized to GAPDH signal to generate curves and calculate IC50 values.

ErbB2 WT = ErbB2 WT (Homo sapiens (Human), UniProt P04626); assay: ErbB Enzyme Assay (HTRF KinEASE-TK), Assay 2; assay type: biochemical; settings: ErbB2 WT enzyme
Description: The kinases were incubated with 250 nM TK-substrate biotin (CisBio, part of cat #62TKOPEC) at 1 mM ATP along with test compounds in a buffer consisting of 25 mM HEPES, pH 7.4, 10 mM MgCl2, 0.01% Triton X-100, and 2% DMSO in a volume of 8 μL. […] After 30-minute incubation at 22° C., the reaction was quenched by adding 8 μL of quench solution containing 62.5 nM Sa-XL665 and 0.25×TK-Ab-Cryptate in HTRF detection buffer (all from CisBio, part of cat #62TKOPEC).

[1] = molecular target: ErbB2 with Exon 20 YVMA insertion (HER2-YVMA) (Homo sapiens (Human), UniProt P04626, INS775YVMA); assay: Cellular Phosphorylation Assay, Assay 4 (constitutive ErbB2 phosphorylation, NIH 3T3 cells); assay type: cell-based; settings: ErbB2 YVMA phosphorylation
Description: as §1, §2

[2] = cellular EGFR WT phosphorylation, EGF-stimulated
[3] = EGF-stimulated EGFR WT phosphorylation

Chain of ErbB2 WT (P04626 23-1255): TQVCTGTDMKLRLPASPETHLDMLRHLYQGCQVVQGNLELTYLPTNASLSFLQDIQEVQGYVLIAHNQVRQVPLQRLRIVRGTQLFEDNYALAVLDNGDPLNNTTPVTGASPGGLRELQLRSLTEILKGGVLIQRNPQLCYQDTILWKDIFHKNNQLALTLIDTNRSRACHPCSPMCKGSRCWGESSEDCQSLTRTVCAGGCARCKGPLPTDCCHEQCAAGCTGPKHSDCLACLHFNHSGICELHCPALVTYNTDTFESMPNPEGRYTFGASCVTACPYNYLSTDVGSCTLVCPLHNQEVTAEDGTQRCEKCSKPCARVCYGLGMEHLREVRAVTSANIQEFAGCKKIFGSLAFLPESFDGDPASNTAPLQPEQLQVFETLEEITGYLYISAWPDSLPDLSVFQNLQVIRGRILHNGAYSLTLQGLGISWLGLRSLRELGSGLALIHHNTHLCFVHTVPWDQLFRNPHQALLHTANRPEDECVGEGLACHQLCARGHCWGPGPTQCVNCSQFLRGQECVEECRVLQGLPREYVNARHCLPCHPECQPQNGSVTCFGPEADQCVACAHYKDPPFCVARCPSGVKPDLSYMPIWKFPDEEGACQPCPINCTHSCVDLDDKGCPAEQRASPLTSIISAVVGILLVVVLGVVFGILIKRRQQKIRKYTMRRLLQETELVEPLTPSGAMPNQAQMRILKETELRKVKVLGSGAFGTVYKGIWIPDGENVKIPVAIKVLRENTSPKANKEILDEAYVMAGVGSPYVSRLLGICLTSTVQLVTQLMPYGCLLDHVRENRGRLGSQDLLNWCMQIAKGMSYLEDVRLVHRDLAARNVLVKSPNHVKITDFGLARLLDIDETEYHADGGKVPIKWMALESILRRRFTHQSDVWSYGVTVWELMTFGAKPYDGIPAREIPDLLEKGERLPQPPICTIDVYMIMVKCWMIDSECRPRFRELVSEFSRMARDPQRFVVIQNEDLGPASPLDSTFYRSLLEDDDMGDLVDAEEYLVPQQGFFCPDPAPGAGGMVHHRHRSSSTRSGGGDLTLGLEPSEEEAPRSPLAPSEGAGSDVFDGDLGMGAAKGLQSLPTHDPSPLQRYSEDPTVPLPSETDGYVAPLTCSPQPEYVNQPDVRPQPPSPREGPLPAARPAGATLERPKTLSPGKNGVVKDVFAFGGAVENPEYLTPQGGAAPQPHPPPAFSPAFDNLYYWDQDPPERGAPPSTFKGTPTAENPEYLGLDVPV
Chain of ErbB2 with Exon 20 YVMA insertion (HER2-YVMA) (P04626 other isoform, or with tags, fused parts or gaps ins YVMA behind 775): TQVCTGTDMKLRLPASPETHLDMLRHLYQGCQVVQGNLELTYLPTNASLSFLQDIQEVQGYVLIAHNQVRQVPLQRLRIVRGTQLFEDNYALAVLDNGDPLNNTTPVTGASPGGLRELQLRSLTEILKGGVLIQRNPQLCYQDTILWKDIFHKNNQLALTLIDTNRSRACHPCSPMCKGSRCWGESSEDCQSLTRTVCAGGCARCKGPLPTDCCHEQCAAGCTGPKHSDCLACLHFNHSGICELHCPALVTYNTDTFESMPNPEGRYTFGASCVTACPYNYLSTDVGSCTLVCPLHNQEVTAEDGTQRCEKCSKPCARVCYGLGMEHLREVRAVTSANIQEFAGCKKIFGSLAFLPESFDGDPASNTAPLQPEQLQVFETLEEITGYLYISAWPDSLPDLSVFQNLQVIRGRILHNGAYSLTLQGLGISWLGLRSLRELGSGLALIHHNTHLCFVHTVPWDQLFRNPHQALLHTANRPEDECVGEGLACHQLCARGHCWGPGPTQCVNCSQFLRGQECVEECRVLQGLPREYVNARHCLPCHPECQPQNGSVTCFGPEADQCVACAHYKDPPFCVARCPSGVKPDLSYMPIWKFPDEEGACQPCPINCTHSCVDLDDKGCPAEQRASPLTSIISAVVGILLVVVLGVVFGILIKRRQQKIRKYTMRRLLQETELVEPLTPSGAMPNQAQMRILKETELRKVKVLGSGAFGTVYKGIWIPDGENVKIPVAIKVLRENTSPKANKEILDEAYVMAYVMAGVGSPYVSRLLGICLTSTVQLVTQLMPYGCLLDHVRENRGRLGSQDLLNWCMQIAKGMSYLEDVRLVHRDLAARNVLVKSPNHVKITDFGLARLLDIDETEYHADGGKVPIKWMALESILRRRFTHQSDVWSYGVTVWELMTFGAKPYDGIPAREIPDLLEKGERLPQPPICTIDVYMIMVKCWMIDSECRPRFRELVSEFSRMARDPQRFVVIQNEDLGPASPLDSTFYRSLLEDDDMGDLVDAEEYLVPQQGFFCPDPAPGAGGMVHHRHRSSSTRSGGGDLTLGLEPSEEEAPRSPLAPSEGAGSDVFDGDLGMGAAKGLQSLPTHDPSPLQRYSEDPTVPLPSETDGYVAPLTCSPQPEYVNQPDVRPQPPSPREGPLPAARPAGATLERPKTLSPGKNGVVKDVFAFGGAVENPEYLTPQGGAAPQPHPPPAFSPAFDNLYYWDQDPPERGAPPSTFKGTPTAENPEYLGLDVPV
Chain of EGFR wild type (EGFR WT) (P00533 25-1210): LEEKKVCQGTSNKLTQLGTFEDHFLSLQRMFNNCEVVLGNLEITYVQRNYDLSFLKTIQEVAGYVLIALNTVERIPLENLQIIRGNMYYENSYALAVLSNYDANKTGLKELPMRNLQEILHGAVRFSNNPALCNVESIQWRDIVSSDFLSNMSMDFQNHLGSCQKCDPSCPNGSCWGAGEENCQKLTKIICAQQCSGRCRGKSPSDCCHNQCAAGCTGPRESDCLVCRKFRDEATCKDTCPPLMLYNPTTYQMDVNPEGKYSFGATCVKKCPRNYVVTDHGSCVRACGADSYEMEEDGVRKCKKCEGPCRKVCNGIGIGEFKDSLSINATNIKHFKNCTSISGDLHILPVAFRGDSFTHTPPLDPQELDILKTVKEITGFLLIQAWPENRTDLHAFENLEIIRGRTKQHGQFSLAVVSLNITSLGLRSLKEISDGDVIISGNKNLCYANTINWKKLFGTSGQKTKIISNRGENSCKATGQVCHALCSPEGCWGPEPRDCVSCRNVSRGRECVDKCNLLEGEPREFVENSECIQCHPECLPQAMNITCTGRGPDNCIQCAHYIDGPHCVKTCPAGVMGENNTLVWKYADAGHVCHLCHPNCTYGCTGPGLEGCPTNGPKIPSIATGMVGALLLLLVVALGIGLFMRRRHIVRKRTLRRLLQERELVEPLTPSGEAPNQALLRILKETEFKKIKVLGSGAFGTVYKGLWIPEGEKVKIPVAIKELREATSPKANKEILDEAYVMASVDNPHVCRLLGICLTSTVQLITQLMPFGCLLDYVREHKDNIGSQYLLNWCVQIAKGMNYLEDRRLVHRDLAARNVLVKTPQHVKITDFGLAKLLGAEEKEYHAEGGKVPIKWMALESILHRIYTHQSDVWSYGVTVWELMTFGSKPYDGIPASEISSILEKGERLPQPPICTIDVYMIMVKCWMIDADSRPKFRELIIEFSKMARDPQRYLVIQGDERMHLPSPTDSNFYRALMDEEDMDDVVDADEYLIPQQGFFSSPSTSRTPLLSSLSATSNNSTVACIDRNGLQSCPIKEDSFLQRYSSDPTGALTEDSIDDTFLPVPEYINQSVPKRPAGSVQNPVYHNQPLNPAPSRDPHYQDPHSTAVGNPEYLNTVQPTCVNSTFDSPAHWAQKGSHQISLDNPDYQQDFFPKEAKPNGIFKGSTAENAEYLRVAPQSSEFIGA
Chain of EGFR (P00533 25-1210): as above

Row | SMILES | IC50 (EGFR; EGFR enzyme assay) | IC50 (EGFR wild type (EGFR WT); [2]) | IC50 (EGFR; EGFR enzyme) | IC50 (EGFR wild type (EGFR WT); [3]) | IC50 (ErbB2 WT) | IC50 [1]
1 | C=CC(=O)N1C[C@H]2CC[C@@H]1[C@@H](c1ccc3ncnc(Nc4cc(C)c(Oc5ccn6ncnc6c5)cc4F)c3n1)C2 [Example 396] | 4.06 µM | ≥ 5 µM |  |  |  | 
2 | C=CC(=O)N1CC[C@@H]2CN(c3ccc4ncnc(Nc5ccc(Oc6ccc7c(c6)ncn7C)c(C)c5)c4n3)C[C@@H]21 [Example 111, 1-((3aR,6aR)-5-(4-((3-methyl-4-((1-methyl-1H-benzo[d]imidazol-5-yl)oxy)phenyl)amino)pyrido[3,2-d]pyrimidin-6-yl)hexahydropyrrolo[3,4-b]pyrrol-1(2H)-yl)prop-2-en-1-one] |  |  | ≥ 10 µM | ≥ 5 µM |  | 
3 | C=CC(=O)N1CC[C@H]2CN(c3ccc4ncnc(Nc5ccc(Oc6ccn7ncnc7c6)c(C)c5F)c4n3)C[C@H]21 [Example 50, 1-((3aS,6aS)-5-(4-((4-([1,2,4]triazolo[1,5-a]pyridin-7-yloxy)-2-fluoro-3-methylphenyl)amino)pyrido[3,2-d]pyrimidin-6-yl)hexahydropyrrolo[3,4-b]pyrrol-1(2H)-yl)prop-2-en-1-one] |  |  | ≥ 10 µM | 3.22 µM |  | 
4 | C=CC(=O)N1CC[C@@H]2CN(c3ccc4ncnc(Nc5ccc(Oc6ccn7ncnc7c6)c(C)c5F)c4n3)C[C@@H]21 [Example 71, 1-((3aR,6aR)-5-(4-((4-([1,2,4]triazolo[1,5-a]pyridin-7-yloxy)-2-fluoro-3-methylphenyl)amino)pyrido[3,2-d]pyrimidin-6-yl)hexahydropyrrolo[3,4-b]pyrrol-1(2H)-yl)prop-2-en-1-one] |  |  | ≥ 10 µM | ≥ 5 µM |  | 
5 | C=CC(=O)N1CCC12CN(c1ccc3ncnc(Nc4ccc(Oc5ccn6ncnc6c5)c(C)c4F)c3n1)C2 [Example 275] | 0.895 µM | 0.526 µM |  |  |  | 
6 | C=CC(=O)N1C[C@H]2CC[C@@H]1C[C@@H]2c1ccc2ncnc(Nc3cc(C)c(Oc4ccn5ncnc5c4)cc3F)c2n1 (racemic) [Example 216, rac-1-((1R,4S,5S)-5-(4-((4-([1,2,4]triazolo[1,5-a]pyridin-7-yloxy)-2-fluoro-5-methylphenyl)amino)pyrido[3,2-d]pyrimidin-6-yl)-2-azabicyclo[2.2.2]octan-2-yl)prop-2-en-1-one] |  |  | 5 µM | ≥ 5 µM |  | 
7 | C=CC(=O)N1CC2(C1)CN(c1ccc3ncnc(Nc4cc(Cl)c(Oc5ccn6ncnc6c5)cc4F)c3n1)C2 [Example 342] | ≥ 10 µM | ≥ 5 µM |  |  |  | 
8 | CC#CC(=O)N1CCN(c2ccc3ncnc(Nc4ccc(Oc5ccn6ncnc6c5)c(C)c4F)c3n2)C[C@H]1C [Example 184, (R)-1-(4-(4-((4-([1,2,4]triazolo[1,5-a]pyridin-7-yloxy)-2-fluoro-3-methylphenyl)amino)pyrido[3,2-d]pyrimidin-6-yl)-2-methylpiperazin-1-yl)but-2-yn-1-one] |  |  | ≥ 10 µM | ≥ 5 µM |  | 
9 | C=CC(=O)N1CC[C@H]2CN(c3ccc4ncnc(Nc5ccc(Oc6ccc7c(c6)ncn7C)c(C)c5)c4n3)C[C@H]21 (racemic) [Example 104, rac-1-((3aR,6aR)-5-(4-((3-methyl-4-((1-methyl-1H-benzo[d]imidazol-5-yl)oxy)phenyl)amino)pyrido[3,2-d]pyrimidin-6-yl)hexahydropyrrolo[3,4-b]pyrrol-1(2H)-yl)prop-2-en-1-one] |  |  | ≥ 10 µM | ≥ 5 µM |  | 
10 | C=CC(=O)N1[C@H](C)CN(c2ccc3ncnc(Nc4ccc(Oc5ccn6ncnc6c5)c(C)c4F)c3n2)C[C@@H]1C [Example 264] | 6.67 µM | 4.55 µM |  |  |  | 
11 | C=CC(=O)N1CCC(Oc2ccc3ncnc(Nc4ccc(Oc5ccc6sc(C)nc6c5)c(Cl)c4F)c3n2)CC1 [Example 16, 1-(4-((4-((3-chloro-2-fluoro-4-((2-methylbenzo[d]thiazol-5-yl)oxy)phenyl)amino)pyrido[3,2-d]pyrimidin-6-yl)oxy)piperidin-1-yl)prop-2-en-1-one] |  |  | ≥ 10 µM |  | 10 µM | 
12 | C=CC(=O)N1CCC(Oc2ccc3ncnc(Nc4ccc(Oc5ccc6sc(C)nc6c5)c(C)c4F)c3n2)CC1 [Example 10, 1-(4-((4-((2-fluoro-3-methyl-4-((2-methylbenzo[d]thiazol-5-yl)oxy)phenyl)amino)pyrido[3,2-d]pyrimidin-6-yl)oxy)piperidin-1-yl)prop-2-en-1-one] |  |  | ≥ 10 µM |  | 2.4 µM | 
13 | C=CC(=O)N1C[C@H]2CC[C@@H]1C[C@H]2c1ccc2ncnc(Nc3cc(C)c(Oc4ccn5ncnc5c4)cc3F)c2n1 [Example 402] | 4.94 µM | ≥ 5 µM |  |  |  | 
14 | C=CS(=O)(=O)N(C)c1ccc2ncnc(Nc3ccc(Oc4ccc5c(c4)ncn5C)c(C)c3)c2n1 [Example 21, N-methyl-N-(4-((3-methyl-4-((1-methyl-1H-benzo[d]imidazol-5-yl)oxy)phenyl)amino)pyrido[3,2-d]pyrimidin-6-yl)ethenesulfonamide] |  |  | 0.466 µM |  | 0.0832 µM | 0.25 µM
15 | CC#CC(=O)Nc1ccc2ncnc(Nc3ccc(Oc4ccc5c(c4)ncn5C)c(C)c3)c2n1 [Example 19, N-(4-((3-methyl-4-((1-methyl-1H-benzo[d]imidazol-5-yl)oxy)phenyl)amino)pyrido[3,2-d]pyrimidin-6-yl)but-2-ynamide] |  |  | 0.205 µM |  | 0.0178 µM | 0.0878 µM
16 | C=CC(=O)N1CCC(Oc2ccc3ncnc(Nc4ccc(Oc5cnc6cn(C)nc6c5)c(C)c4F)c3n2)CC1 [Example 58, 1-(4-((4-((2-fluoro-3-methyl-4-((2-methyl-2H-pyrazolo[4,3-b]pyridin-6-yl)oxy)phenyl)amino)pyrido[3,2-d]pyrimidin-6-yl)oxy)piperidin-1-yl)prop-2-en-1-one] |  |  | ≥ 10 µM | 2.23 µM |  | 
17 | C=CC(=O)N1CCC(Oc2ccc3ncnc(Nc4ccc(Oc5ccc6sc(C)nc6c5)c(C)c4)c3n2)CC1 [Example 7, 1-(4-((4-((3-methyl-4-((2-methylbenzo[d]thiazol-5-yl)oxy)phenyl)amino)pyrido[3,2-d]pyrimidin-6-yl)oxy)piperidin-1-yl)prop-2-en-1-one] |  |  | ≥ 10 µM |  | 2.09 µM | 
18 | C=CC(=O)N(C)c1ccc2ncnc(Nc3ccc(Oc4ccc5c(c4)ncn5C)c(C)c3)c2n1 [Example 23, N-methyl-N-(4-((3-methyl-4-((1-methyl-1H-benzo[d]imidazol-5-yl)oxy)phenyl)amino)pyrido[3,2-d]pyrimidin-6-yl)acrylamide] |  |  | 0.709 µM |  | 0.0727 µM | 0.0639 µM
19 | C=CC(=O)N1CC[C@H]2CN(c3ccc4ncnc(Nc5ccc(Oc6ccc7c(c6)ncn7C)c(C)c5)c4n3)C[C@H]21 [Example 117, 1-((3aS,6aS)-5-(4-((3-methyl-4-((1-methyl-1H-benzo[d]imidazol-5-yl)oxy)phenyl)amino)pyrido[3,2-d]pyrimidin-6-yl)hexahydropyrrolo[3,4-b]pyrrol-1(2H)-yl)prop-2-en-1-one] |  |  | ≥ 10 µM | ≥ 5 µM |  | 
20 | C=CC(=O)N1C[C@H]2CC[C@@H]1[C@H](c1ccc3ncnc(Nc4cc(C)c(Oc5ccn6ncnc6c5)cc4F)c3n1)C2 [Example 395] | ≥ 10 µM | ≥ 5 µM |  |  |  | 
21 | C=CC(=O)N1C2COCC1CC(c1ccc3ncnc(Nc4ccc(Oc5ccc6c(c5)ncn6C)c(C)c4F)c3n1)C2 (centres unmarked) [Example 161, 1-(7-(4-((2-fluoro-3-methyl-4-((1-methyl-1H-benzo[d]imidazol-5-yl)oxy)phenyl)amino)pyrido[3,2-d]pyrimidin-6-yl)-3-oxa-9-azabicyclo[3.3.1]nonan-9-yl)prop-2-en-1-one] |  |  | 0.57 µM | 0.368 µM | 0.0199 µM | 
22 | C=CC(=O)N1CCN(c2ccc3ncnc(Nc4ccc(Oc5ccn6ncnc6c5)c(C)c4F)c3n2)C[C@H]1CC [Example 274] | 2.35 µM | 0.681 µM |  |  |  | 
23 | C=CC(=O)N1CCN(c2ccc3ncnc(Nc4ccc(Oc5ccn6ncnc6c5)c(C)c4F)c3n2)C[C@@H]1CC [Example 269] | 8.2 µM | ≥ 5 µM |  |  |  | 
